Experimental data taken from the supplement of paper PMC10307832.

What was measured:
Assay in all cases: relative viability (nuclei count vs DMSO), 5 days (fraction); higher = more cells survive
Pictilisib + Tozasertib = compound: CS(=O)(=O)N1CCN(Cc2cc3nc(-c4cccc5[nH]ncc45)nc(N4CCOCC4)c3s2)CC1 [Pictilisib] + Cc1cc(Nc2cc(N3CCN(C)CC3)nc(Sc3ccc(NC(=O)C4CC4)cc3)n2)n[nH]1 [Tozasertib] (partner 0.1 µM)
Method in brief: (§1)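 Relative viability divides the nuclei count in treated wells by that in vehicle wells. Lung cancer cell lines were seeded in 1536-well plates, dosed by pin tool the next day, and fixed and stained after 5 days in one step with final 0.05% Triton X-100, 1% formaldehyde and 1 ug/ml Hoechst. Dosing was a single drug or a fixed anchor-drug dose plus five library-drug doses (not always all listed) in √10 steps, and values are medians of duplicate plates imaged at 4×.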

Pictilisib + Alpelisib = compound: CS(=O)(=O)N1CCN(Cc2cc3nc(-c4cccc5[nH]ncc45)nc(N4CCOCC4)c3s2)CC1 [Pictilisib] + Cc1nc(NC(=O)N2CCC[C@H]2C(N)=O)sc1-c1ccnc(C(C)(C)C(F)(F)F)c1 [Alpelisib] (partner 2 µM)
Method in brief: as §1

MK-2206 + Foretinib = compound: NC1(c2ccc(-c3nc4ccn5c(=O)[nH]nc5c4cc3-c3ccccc3)cc2)CCC1 [MK-2206] + COc1cc2c(Oc3ccc(NC(=O)C4(C(=O)Nc5ccc(F)cc5)CC4)cc3F)ccnc2cc1OCCCN1CCOCC1 [Foretinib] (partner 0.25 µM)
Method in brief: as §1

MK-2206 + Olaparib = compound: NC1(c2ccc(-c3nc4ccn5c(=O)[nH]nc5c4cc3-c3ccccc3)cc2)CCC1 [MK-2206] + O=C(c1cc(Cc2n[nH]c(=O)c3ccccc23)ccc1F)N1CCN(C(=O)C2CC2)CC1 [Olaparib] (partner 8 µM)
Method in brief: as §1

MK-2206 + Navitoclax = compound: NC1(c2ccc(-c3nc4ccn5c(=O)[nH]nc5c4cc3-c3ccccc3)cc2)CCC1 [MK-2206] + CC1(C)CCC(c2ccc(Cl)cc2)=C(CN2CCN(c3ccc(C(=O)NS(=O)(=O)c4ccc(N[C@H](CCN5CCOCC5)CSc5ccccc5)c(S(=O)(=O)C(F)(F)F)c4)cc3)CC2)C1 [Navitoclax] (partner 0.5 µM)
Method in brief: as §1

| Cell Line | relative viability (Pictilisib + Tozasertib; first compound 0.02 µM) | relative viability (Pictilisib + Tozasertib; first compound 0.06325 µM) | relative viability (Pictilisib + Tozasertib; first compound 0.6325 µM) | relative viability (Pictilisib + Tozasertib; first compound 2 µM) | relative viability (Pictilisib + Alpelisib; first compound 0.02 µM) | relative viability (Pictilisib + Alpelisib; first compound 0.06325 µM) | relative viability (Pictilisib + Alpelisib; first compound 0.6325 µM) | relative viability (Pictilisib + Alpelisib; first compound 2 µM) | relative viability (MK-2206 + Foretinib; first compound 0.01 µM) | relative viability (MK-2206 + Foretinib; first compound 0.03162 µM) | relative viability (MK-2206 + Foretinib; first compound 0.3162 µM) | relative viability (MK-2206 + Foretinib; first compound 1 µM) | relative viability (MK-2206 + Olaparib; first compound 0.01 µM) | relative viability (MK-2206 + Olaparib; first compound 0.03162 µM) | relative viability (MK-2206 + Olaparib; first compound 0.3162 µM) | relative viability (MK-2206 + Olaparib; first compound 1 µM) | relative viability (MK-2206 + Navitoclax; first compound 0.01 µM) | relative viability (MK-2206 + Navitoclax; first compound 0.03162 µM) | relative viability (MK-2206 + Navitoclax; first compound 0.3162 µM) | relative viability (MK-2206 + Navitoclax; first compound 1 µM) |
| --- | --- | --- | --- | --- | --- | --- | --- | --- | --- | --- | --- | --- | --- | --- | --- | --- | --- | --- | --- | --- |
| NCI-H1944 | 0.254 | 0.234 | 0.195 | 0.148 | 0.817 | 0.776 | 0.732 | 0.472 | 0.889 | 1 | 0.887 | 0.829 | 0.388 | 0.439 | 0.429 | 0.478 | 1.07 | 1.03 | 1.02 | 0.992 |
| NCI-H2009 | 0.719 | 0.736 | 0.75 | 0.461 | 1.19 | 1.17 | 1.13 | 1.07 | 1.26 | 1.18 | 1.24 | 1.16 | 0.703 | 0.662 | 0.701 | 0.704 | 1.12 | 1.15 | 1.17 | 1.13 |
| SW 900 | 0.651 | 0.63 | 0.562 | 0.334 |  |  |  |  | 0.864 | 0.936 | 0.882 | 0.769 | 0.79 |  | 0.874 | 0.885 |  |  |  |  |
| NCI-H441 | 0.654 | 0.542 | 0.527 | 0.289 | 0.735 | 0.833 | 0.698 | 0.541 | 0.923 | 1.03 | 0.59 | 0.822 | 0.588 | 0.622 | 0.541 | 0.338 | 0.77 | 0.639 | 0.6 | 0.505 |
| NCI-H1623 | 0.378 | 0.364 | 0.381 | 0.272 |  |  |  |  | 0.844 | 0.958 | 0.795 | 0.832 |  |  |  |  |  |  |  |  |
| NCI-H1437 | 0.383 | 0.41 | 0.324 | 0.242 | 0.932 | 0.912 | 0.68 | 0.566 | 1.19 | 1.27 | 1.35 | 1.35 | 0.632 | 0.643 | 0.698 | 0.653 | 1.07 | 1.16 | 1.18 | 1.09 |
| LCLC-103H | 0.636 | 0.456 | 0.339 | 0.26 | 0.946 | 1.03 | 0.818 | 0.848 | 0.867 | 0.792 | 0.669 | 0.698 | 0.548 | 0.768 | 0.777 | 0.731 |  |  |  |  |
| HCC-44 | 0.952 | 0.922 | 0.629 | 0.279 | 0.893 | 0.79 | 0.674 | 0.412 |  |  |  |  | 1.06 | 1 | 1.04 | 0.97 | 0.868 | 0.962 | 0.868 | 0.818 |
| NCI-H358 | 0.0959 | 0.104 | 0.103 | 0.0838 | 0.831 | 0.981 | 0.769 | 0.595 | 0.767 | 0.841 | 0.661 | 0.685 | 0.61 | 0.641 | 0.541 | 0.56 |  |  |  |  |
| ABC-1 | 0.187 | 0.135 | 0.158 | 0.168 | 1.1 | 1.04 | 0.995 | 0.809 | 1.16 | 0.965 | 1.17 | 1.07 | 0.898 | 0.841 | 1.1 | 1.08 |  |  |  |  |
| EBC-1 |  |  |  |  | 0.904 | 0.836 | 0.67 | 0.295 | 0.0881 | 0.12 | 0.117 | 0.106 | 0.362 | 0.685 | 0.484 | 0.175 | 0.455 | 0.385 | 0.23 | 0.131 |
| NCI-H1703 |  |  |  |  | 0.435 | 0.314 | 0.227 | 0.195 | 0.368 | 0.309 | 0.377 | 0.333 | 0.444 | 0.426 | 0.443 | 0.407 | 1.15 | 0.961 | 0.621 | 0.776 |
| NCI-H1563 |  |  |  |  | 1.06 | 0.851 | 0.724 | 0.591 | 0.882 | 0.988 | 0.832 | 0.769 |  |  |  |  |  |  |  |  |
| NCI-H1299 |  |  |  |  | 1.06 | 1.07 | 1.08 | 1.04 | 1.15 | 1.06 | 1.15 | 1.16 | 0.967 | 1.04 | 1.05 | 1.02 | 1.09 | 1.05 | 1.06 | 1.05 |
| A549 |  |  |  |  | 0.785 | 0.627 | 0.619 | 0.345 | 0.752 | 0.817 | 0.914 | 0.907 | 0.389 | 0.439 | 0.333 | 0.125 | 1.19 | 1.08 | 1.11 | 0.991 |
| NCI-H522 | 0.52 | 0.542 | 0.444 | 0.397 |  |  |  |  |  |  |  |  | 0.668 | 0.624 | 0.629 | 0.666 |  |  |  |  |
| NCI-H1650 | 0.467 | 0.401 | 0.348 | 0.18 |  |  |  |  | 1.28 | 1.15 | 0.864 | 0.947 | 0.72 | 0.864 | 0.969 | 0.957 | 1.11 | 1 | 1.06 | 1.02 |
| NCI-H1648 | 0.377 | 0.36 | 0.455 | 0.246 |  |  |  |  |  |  |  |  | 1.01 | 1.11 | 0.966 | 0.769 |  |  |  |  |
| NCI-H661 | 0.345 | 0.354 | 0.4 | 0.396 | 0.598 | 0.794 | 0.579 | 0.373 | 1.01 | 1.09 | 1.01 | 0.986 | 0.768 | 0.751 | 0.763 | 0.738 |  |  |  |  |
| NCI-H2342 | 0.46 | 0.474 | 0.409 | 0.276 |  |  |  |  | 0.985 | 1.13 | 1 | 0.901 | 0.444 | 0.471 | 0.386 | 0.353 |  |  |  |  |
| Calu-6 |  |  |  |  | 1.01 | 0.967 | 0.909 | 0.833 | 0.939 | 0.99 | 0.837 | 0.937 |  | 0.592 | 0.653 | 0.614 | 0.937 | 0.9 | 0.861 | 0.828 |
